Laboratory results: PubChem BioAssay (NCI)
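Dose response: 5 concentrations. Exposure: 48 h. Format: 96-well plates. Endpoint: linear interpolation; highest concentration if not reached. At the TGI there is no net growth.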

Tests used:
Assay in all cases: NCI anticancer screen, dose series, 48 h
[1] = tested on: 786-0 renal
[2] = tested on: A498 renal
[3] = tested on: A549 NSCLC
[4] = tested on: ACHN renal
[5] = tested on: CAKI-1 renal
[6] = tested on: CCRF-CEM leukemia
[7] = tested on: COLO 205 colon
[8] = tested on: DU-145 prostate
[9] = tested on: EKVX NSCLC
[10] = tested on: HCC-2998 colon
[11] = tested on: HCT-116 colon
[12] = tested on: HCT-15 colon
[13] = tested on: HOP-62 NSCLC
[14] = tested on: HOP-92 NSCLC
[15] = tested on: HT29 colon
[16] = tested on: IGROV1 ovarian
[17] = tested on: K-562 leukemia
[18] = tested on: KM12 colon
[19] = tested on: LOX IMVI melanoma
[20] = tested on: M14 melanoma
[21] = tested on: MALME-3M melanoma
[22] = tested on: MCF7 breast
[23] = tested on: MDA-MB-231 breast
[24] = tested on: MDA-MB-435
[25] = tested on: MDA-N
[26] = tested on: MOLT-4 leukemia
[27] = tested on: NCI-H226 lung
[28] = tested on: NCI-H23 lung
[29] = tested on: NCI-H460 lung
[30] = tested on: NCI-H522 lung
[31] = tested on: NCI/ADR-RES ovarian
[32] = tested on: OVCAR-3 ovarian
[33] = tested on: OVCAR-4 ovarian
[34] = tested on: OVCAR-5 ovarian
[35] = tested on: OVCAR-8 ovarian
[36] = tested on: PC-3 prostate
[37] = tested on: RXF 393 renal
[38] = tested on: SF-268 CNS
[39] = tested on: SF-295 CNS
[40] = tested on: SF-539 CNS
[41] = tested on: SK-MEL-2 melanoma
[42] = tested on: SK-MEL-28 melanoma
[43] = tested on: SK-MEL-5 melanoma
[44] = tested on: SK-OV-3 ovarian
[45] = tested on: SN12C renal
[46] = tested on: SNB-19 CNS
[47] = tested on: SNB-75 CNS
[48] = tested on: SR leukemia
[49] = tested on: SW-620 colon
[50] = tested on: T-47D breast
[51] = tested on: TK-10 renal
[52] = tested on: U251 CNS
[53] = tested on: UACC-257 melanoma
[54] = tested on: UACC-62 melanoma
[55] = tested on: UO-31 renal

Measured: TGI

C=C(C)/C=C/C(O)[C@](C)(O)[C@H]1[C@H](O)C[C@@]2(C)[C@@H]3CCc4c(cc(OC5OC(CO)C(O)C(O)C5O)c(O)c4C)C3(C)C(=O)C[C@]12C (stereo not given in full)
> 100 µM: all assays above
